In ChEMBL document CHEMBL5352429, “Designed symmetrical β-hairpin peptides for treating multidrug-resistant salmonella typhimurium infections” (Eur J Med Chem, 2022):
≈ marks a conversion by molar mass, not a printed value. Calls of active or inactive are those of the source. No cut-off for these calls is given here. Peptide text beside a SMILES is read from it.

How the values were obtained:
[1] = system: Salmonella typhimurium; test: Antibacterial activity against Salmonella typhimurium DT104 assessed as increase in ZO-2 mRNA level in colon at 20 mg/kg, ip administered for 3 days and measured on day 7 by RT-PCR analysis; format: functional, organism-based; conditions: Salmonella enterica subsp. enterica serovar Typhimurium, time 7.0 day
[2] = system: Salmonella paratyphi; test: Antibacterial activity against Salmonella paratyphi A CICC 21501 incubated overnight by standard microtiter dilution method; format: functional, Salmonella enterica subsp. enterica serovar Paratyphi A; conditions: Salmonella enterica
[3] = system: Salmonella typhimurium; test: Antibacterial activity against Salmonella typhimurium DT104 assessed as increase in claudin mRNA level in colon at 20 mg/kg, ip administered for 3 days and measured on day 7 by RT-PCR analysis; format: functional, organism-based; conditions: Salmonella enterica subsp. enterica serovar Typhimurium, time 7.0 day
[4] = system: Cell membrane; test: Disruption of membrane integrity in Salmonella typhimurium DT104 assessed as increase in red fluorescence at 1 times of MIC incubated for 60 mins by PI and SYTO9 staining based confocal laser scanning microscopic analysis; format: subcellular; conditions: Salmonella enterica subsp. enterica serovar Typhimurium
[5] = system: Salmonella typhimurium; test: Antibacterial activity against Salmonella typhimurium DT104 assessed as reduction in TNF-alpha production in serum at 20 mg/kg, ip administered for 3 days and measured on day 7; format: functional, organism-based; conditions: Salmonella enterica subsp. enterica serovar Typhimurium, time 7.0 day

**Q.** Which results are given for `C[C@@H](O)[C@H](NC(=O)[C@H](CS)NC(=O)[C@H](CCCCN)NC(=O)[C@H](Cc1c[nH]c2ccccc12)NC(=O)[C@H](CCCCN)NC(=O)[C@@H](N)Cc1c[nH]c2ccccc12)C(=O)N[C@@H](CCCCN)C(=O)N[C@@H](CO)C(=O)NCC(=O)N[C@@H](CS)C(=O)N[C@@H](CCCCN)C(=O)N[C@@H](Cc1c[nH]c2ccccc12)C(=O)N[C@@H](CCCCN)C(=O)N[C@@H](Cc1c[nH]c2ccccc12)C(N)=O` (H-WKWKCTKSGCKWKW-NH2)?
**A.** Activity [1]: Active; MIC [2]: 8 µg/mL (≈ 4.31 µM); Activity [3]: Active; Activity [4]: Active; Activity [5]: Active
